In US6737383B1, “Herbicidal oxadiazolidines” (priority 1999, dated 2004):

Legend:
[1] = tested on: bedstraw; assay: Test B pre/postemergence bedstraw; format: in vivo, Galium aparine
Outline: (§1)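 Response is a visual 0-to-10 score relative to untreated plants, where 0 means no effect and 10 means complete control, taken twelve to sixteen days after application. Treatments went onto soil at planting and onto foliage of 1- to 4-leaf plants, using a surfactant-containing non-phytotoxic solvent.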

[2] = tested on: blackgrass; assay: Test B pre/postemergence blackgrass; format: in vivo, Alopecurus myosuroides
Outline: as §1

[3] = tested on: surinam grass; assay: Test B pre/postemergence surinam grass; format: in vivo, Brachiaria decumbens
Outline: as §1

[4] = tested on: corn; assay: Test B pre/postemergence corn; format: in vivo, Zea mays
Outline: as §1

[5] = tested on: crabgrass; assay: Test B pre/postemergence crabgrass; format: in vivo, Digitaria sanguinalis
Outline: as §1

[6] = tested on: pigweed; assay: Test B pre/postemergence pigweed; format: in vivo, Amaranthus retroflexus
Outline: as §1

[7] = tested on: rape; assay: Test B pre/postemergence rape; format: in vivo, Brassica napus
Outline: as §1

[8] = tested on: soybean; assay: Test B pre/postemergence soybean; format: in vivo, Glycine max
Outline: as §1

[9] = tested on: sugar beet; assay: Test B pre/postemergence sugar beet; format: in vivo, Beta vulgaris
Outline: as §1

[10] = tested on: velvetleaf; assay: Test B pre/postemergence velvetleaf; format: in vivo, Abutilon theophrasti
Outline: as §1

[11] = tested on: wheat; assay: Test B pre/postemergence wheat; format: in vivo, Triticum aestivum
Outline: as §1

[12] = tested on: wild oat; assay: Test B pre/postemergence wild oat; format: in vivo, Avena fatua
Outline: as §1

[13] = tested on: purple nutsedge; assay: Test B pre/postemergence purple nutsedge; format: in vivo, Cyperus rotundus
Outline: as §1

[14] = tested on: rice; assay: Test B flood test rice; format: in vivo, Oryza sativa
Outline: (§2)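 Flood test on plants grown to the 2-leaf stage; treated plants kept in greenhouse twelve to sixteen days, then visually rated against controls on a 0 (no effect) to 10 (complete control) scale.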

[15] = tested on: smallflower flatsedge; assay: Test B flood test smallflower flatsedge; format: in vivo, Cyperus difformis
Outline: as §2

[16] = tested on: duck salad; assay: Test B flood test duck salad; format: in vivo, Heteranthera limosa
Outline: as §2

[17] = Postemergence, Rate 250 g/ha, scale 0 to 10, 0 no effect, 10 complete control
[18] = Postemergence, Rate 1000 g/ha, scale 0 to 10 (0 no effect, 10 complete control)
[19] = Preemergence, Rate 125 g/ha, scale 0 to 10 (0 no effect, 10 complete control)
[20] = Preemergence, Rate 250 g/ha, scale of 0 to 10 where 0 is no effect and 10 is complete control
[21] = Preemergence, Rate 500 g/ha, scale 0 (no effect) to 10 (complete control)
[22] = Rate 125 g/ha, Postemergence, scale 0 to 10, 0 no effect, 10 complete control
[23] = Rate 500 g/ha, Postemergence, 0 to 10 scale (0 no effect, 10 complete control)
[24] = Rate 1000 g/ha, Preemergence, scale 0 to 10 (0 no effect, 10 complete control)
[25] = Rate 125 g/ha, Postemergence section (flood test species), scale 0 to 10, 0 no effect, 10 complete control
[26] = Rate 500 g/ha, Postemergence section of Table B, 0 to 10 scale (0 no effect, 10 complete control)
[27] = flood test, listed under Postemergence, Rate 250 g/ha, scale 0 to 10, 0 no effect, 10 complete control

CC(C)N(C(=O)n1oc(=O)n(-c2ccc(OC(F)(F)F)cc2)c1=O)C1=CCOCC1 [Compound 13]
6: Blackgrass plant response rating [2, 21] | B. signalgrass plant response rating [3, 18]
1: Crabgrass plant response rating [5, 22] | Rape plant response rating [7, 18] | Rape plant response rating [7, 23] | Soybean plant response rating [8, 22]
5: B. signalgrass plant response rating [3, 23] | Crabgrass plant response rating [5, 17] | Plant response rating, Crabgrass [5, 20] | Crabgrass plant response rating [5, 21]
4: Blackgrass plant response rating [2, 23] | B. signalgrass plant response rating [3, 21]
3: Plant response rating, Bedstraw [1, 24] | Blackgrass plant response rating [2, 17] | Plant response rating, Redroot pigweed [6, 24] | Soybean plant response rating [8, 18]
8: Blackgrass plant response rating [2, 18] | Plant response rating, B. signalgrass [3, 24] | Plant response rating, Crabgrass [5, 24]
9: Plant response rating, Blackgrass [2, 24] | Crabgrass plant response rating [5, 18] | Crabgrass plant response rating [5, 23]
0: Bedstraw plant response rating [1, 17] | Bedstraw plant response rating [1, 18] | Plant response rating, Bedstraw [1, 19] | Plant response rating, Bedstraw [1, 20] | Bedstraw plant response rating [1, 21] | Bedstraw plant response rating [1, 22] | Bedstraw plant response rating [1, 23] | Plant response rating, Blackgrass [2, 19] | Plant response rating, Blackgrass [2, 20] | Blackgrass plant response rating [2, 22] | Plant response rating, B. signalgrass [3, 19] | B. signalgrass plant response rating [3, 22] | Corn plant response rating [4, 17] | Corn plant response rating [4, 18] | Plant response rating, Corn [4, 19] | Plant response rating, Corn [4, 20] | Corn plant response rating [4, 21] | Corn plant response rating [4, 22] | Corn plant response rating [4, 23] | Plant response rating, Corn [4, 24] | Redroot pigweed plant response rating [6, 17] | Redroot pigweed plant response rating [6, 18] | Plant response rating, Redroot pigweed [6, 19] | Plant response rating, Redroot pigweed [6, 20] | Redroot pigweed plant response rating [6, 21] | Redroot pigweed plant response rating [6, 22] | Redroot pigweed plant response rating [6, 23] | Rape plant response rating [7, 17] | Plant response rating, Rape [7, 19] | Plant response rating, Rape [7, 20] | Rape plant response rating [7, 21] | Rape plant response rating [7, 22] | Plant response rating, Rape [7, 24] | Plant response rating, Soybean [8, 19] | Plant response rating, Soybean [8, 20] | Soybean plant response rating [8, 21] | Plant response rating, Soybean [8, 24] | Sugarbeets plant response rating [9, 17] | Sugarbeets plant response rating [9, 18] | Plant response rating, Sugarbeets [9, 19] | Plant response rating, Sugarbeets [9, 20] | Sugarbeets plant response rating [9, 21] | Sugarbeets plant response rating [9, 22] | Plant response rating, Sugarbeets [9, 24] | Velvetleaf plant response rating [10, 17] | Velvetleaf plant response rating [10, 18] | Plant response rating, Velvetleaf [10, 19] | Plant response rating, Velvetleaf [10, 20] | Velvetleaf plant response rating [10, 21] | Velvetleaf plant response rating [10, 22] | Wheat plant response rating [11, 17] | Wheat plant response rating [11, 18] | Plant response rating, Wheat [11, 19] | Plant response rating, Wheat [11, 20] | Wheat plant response rating [11, 21] | Wheat plant response rating [11, 22] | Plant response rating, Wheat [11, 24] | Wild oats plant response rating [12, 17] | Plant response rating, Wild oats [12, 19] | Plant response rating, Wild oats [12, 20] | Wild oats plant response rating [12, 22] | Nutsedge plant response rating [13, 17] | Nutsedge plant response rating [13, 18] | Plant response rating, Nutsedge [13, 19] | Plant response rating, Nutsedge [13, 20] | Nutsedge plant response rating [13, 21] | Nutsedge plant response rating [13, 22] | Nutsedge plant response rating [13, 23] | Plant response rating, Nutsedge [13, 24] | Rice plant response rating [14, 18] | Rice plant response rating [14, 25] | Rice plant response rating [14, 26] | Rice plant response rating [14, 27] | S. Flatsedge plant response rating [15, 18] | S. Flatsedge plant response rating [15, 25] | S. Flatsedge plant response rating [15, 27] | Ducksalad plant response rating [16, 18] | Ducksalad plant response rating [16, 25] | Ducksalad plant response rating [16, 26] | Ducksalad plant response rating [16, 27]
7: Plant response rating, Wild oats [12, 24]
2: B. signalgrass plant response rating [3, 17] | Plant response rating, B. signalgrass [3, 20] | Plant response rating, Crabgrass [5, 19] | Soybean plant response rating [8, 17] | Plant response rating, Velvetleaf [10, 24] | Wild oats plant response rating [12, 18] | Wild oats plant response rating [12, 21]
